Paper PMC10762078, “Role of UPF1-LIN28A interaction during early differentiation of pluripotent stem cells” (Nature Communications, 2024)
Ends that are not written are not given here.

Experiments:
CHA15 cells = experiment: Flow cytometry of SOX1, DLK1 and LHX2 during ectodermal differentiation (Fig. 7b, Supplementary Fig. 7f); type: cell-based, human; parameters: unit not given here; conditions: for DLK1 FACS, mean / LHX2 FACS, mean / SOX1 FACS, mean: mean from t test output, scale differs from set1-set3 values
Experimental: (§1) For CPP-conjugated peptide delivery, HeLa, 293T, and PA-1 cells were incubated with CPP-conjugated peptides or CPP-FITC at 2 μM in DMEM with 10% FBS for 12 h a day before cell harvest. hPSCs were treated with CPP-conjugated peptides at 10 μM in mTeSR Plus Medium, and the peptide-containing medium was changed every day over 10 days. The ROCK inhibitor (Tocris Bioscience, Y-27632) treated-hPSCs were dissociated into single cells using Accutase (Merck, SCR005) and differentiated into ectoderm, mesoderm, and endoderm using the STEMdiff Trilineage Differentiation Kit ([…] Technologies, 05230) following the manufacturer’s protocol. Differentiated cells treated with CPP-conjugated peptides were analysed at 0, 3, and 5 days for ectoderm and endoderm, and at 0, 3, and 4 days for mesoderm.
To evaluate the relative cell number expressing the indicated proteins, CHA15 cells with the indicated CPP-conjugated peptide were fixed with BD Cytofix Fixation Buffer (BD Biosciences Pharmingen, 554655) followed by permeabilization with 0.1% BSA/PBS solution supplemented with 10% NGS and 0.3% Triton X-100 for 1 h at 4 °C. After washing, cells were incubated with the primary antibodies (OCT4 1:1000, NANOG 1:1000, DLK1 1:1000, SOX2 1:1000, LHX2 1:1000) and then, secondary antibody, Alexa Fluor 488 (1:1000), was applied. The positive cells were determined using flow cytometry (FACSCanto, BD Pharmingen), and data was analysed using the Flow Jo-v10 software program.

p-UPF1 (Thr28) = experiment: Western blot of p-UPF1 (Thr28) in CPP-peptide-treated hPSCs; type: cell-based, human; conditions: relative to CPP-P1 = 100, n = 3
Experimental: as §1
Protein samples were loaded for electrophoresis on sodium dodecyl sulphate (SDS) polyacrylamide gels, followed by Coomassie blue staining or transferred to nitrocellulose membranes (Cytiva) for WB. After blocking with 5% non-fat milk (Cellconic) in Tris-buffered saline with Tween-20 for 30 min at room temperature, the membranes were incubated with the following primary antibodies: anti-FLAG (GenScript, A00187; 1:2000), UPF1 (Cell Signaling Technology, 12040; 1:4000), UPF2 (Cell Signaling Technology, 11875; 1:2000), eIF4E (Cell Signaling Technology, 2067; 1:2000), β-actin (Sigma-Aldrich, A2228; 1:4000), GST (Cytiva, 27-4577-01; 1:2000), MYC (Calbiochem, OP10; 1:2000), Calnexin (Cell Signaling Technology, 2679; 1:4000), LIN28A (Cell Signaling Technology, 3978; 1:2000), pSer1096 phosphorylated UPF1 (1:2000)[58], or p-Thr28 phosphorylated UPF1 (ImmuQuest, IQ653; 1:2000). Primary antibodies were incubated overnight at 4 °C and then washed thrice with TBS-T, followed by incubation with secondary antibodies: Goat anti-Rabbit IgG (Invitrogen, 31460; 1:4000), Goat anti-Mouse IgG (Invitrogen, 31430; 1:4000), or Horse anti-Goat IgG (Vector Laboratories, PI-9500; 1:4000) for 1 h at room temperature. For pull-downed protein detection, all primary and secondary antibodies were diluted at 1:10,000. The blots were imaged using ChemiDoc XRS+ System (Bio-Rad) and the greyscale intensity values were quantified using Image Lab 3.0 software (Bio-Rad).
DAPI FITC Merge DAPI FITC Merge CHA15 H9 Pro2 H9
No peptide CPP-FITC Calnexin
For 2-day treatm ent For 4-day treatm ent […]
Student’s t-test was used. Data are presented as m ean values ± S.D (b) and mean values ± SEM (c and d). All statistical test us ed wer e two-s ided. T he m inim um num ber of independent biological replicate experim ents was a, b, and d n = 3, c n = 5. T he experim ents wer e conducted three tim es, each iteration producing consistent results. […]

[1] = vs. P1, ± SEM, unpaired t test, df=4

| Substance | DLK1 FACS, mean (CHA15 cells) | LHX2 FACS, mean (CHA15 cells) | SOX1 FACS, mean (CHA15 cells) | p-UPF1 (Thr28)/Calnexin, mean (p-UPF1 (Thr28); CHA15, 2-day treatment) [%] | p-UPF1 (Thr28)/Calnexin, mean (p-UPF1 (Thr28); H9, 2-day treatment) [%] | p-UPF1 (Thr28)/Calnexin, mean (p-UPF1 (Thr28); H9, 4-day treatment) [%] | p-UPF1 (Thr28)/Calnexin, mean (p-UPF1 (Thr28); Pro2, 2-day treatment) [%] | DLK1 FACS, difference between means ± SEM (CHA15 cells; [1]) | LHX2 FACS, difference between means ± SEM (CHA15 cells; [1]) | SOX1 FACS, difference between means ± SEM (CHA15 cells; [1]) |
| --- | --- | --- | --- | --- | --- | --- | --- | --- | --- | --- |
| N-QKLDQKELQLEPM-C [P1, reference compound] | 6634 | 6112 | 8503 | 100 | 100 | 100 | 100 |  |  |  |
| KKKWCRKKKSSADEKRYRALKRTAERELLMNA [P8] | 8315 | 9545 | 5506 | 277 | 91 | 183 | 250 | 1682 ± 236.3 | 3433 ± 333.3 | -2997 ± 246.0 |
